Data: patent publication US12150955B2, “Iodine compositions” (DERMALIQ THERAPEUTICS, INC., priority 2017, dated 2024)

Assays:
Rabbit corneas = assay: Ex Vivo Eye Irritation Test (EVEIT), corneal healing
Description: A comparison in respect of corneal healing process was conducted for a composition comprising molecular iodine (0.25 mg/ml; 250 ppm) in 1-perfluorohexyl-octane (Composition B) with vehicle 1-perfluorohexyl-octane (Composition A) and hyaluronic acid (HYLO-COMOD®) as a reference and 0.01% BAC (benzalkonium chloride) as a control using an Ex Vivo Eye Irritation Test (EVEIT), similar to as described in M. Frentz et al, Altern. to Lab. Anim., 2008 (36) p 25-32; and N. Schrage et al, Graefes Arch Clin Exp Ophthalmol 2012 (250), 1330-1340).
Method. […]
After 12 h of stabilization in the culture chamber, the corneas were evaluated by microscopy and corneas with intact epithelium and without opacities were selected. […] All defects were monitored by fluorescein sodium staining (0.17% aq. solution) and microscopy.
The test substances were administered one hour after induction of the corneal erosion and were applied six times daily onto the apex of the corneas (30-50 μL every four hours). […] All defects were monitored by fluorescein sodium stains (0.17% aq. solution) with yellow green fluorescence indicating the areas of epithelial defects. Erosion sizes were determined using a software tool of the microscope (DISKUS). […] To monitor the metabolic activity of the cornea, glucose and lactate concentrations were photometrically quantified in the outflow medium from the artificial anterior chambers.

[1] = Concentration of molecular iodine dissolved in the vehicle (saturated solutions); type: physicochemical
Description: Molecular iodine (I2) solutions in the semifluorinated alkane F4H5 at target concentrations of 0.01 mg/ml, 0.05 mg/ml, 0.1 mg/mL, 0.5 mg/mL, 0.55 mg/ml and 0.94 mg/mL were prepared. Molecular iodine was weighed into clear glass vials, followed by addition of the calculated volume of semifluorinated alkane F4H5. The compositions were stirred for 2 hours at room temperatures. The compositions provided clear pink solutions, ranging from strong pink/violet color at high concentrations (0.55 mg/ml) to very dilute pinkish colour at lower concentrations (0.01 mg/ml).
The 0.94 mg/ml solution was prepared by adding additional F4H5 to a composition comprising 1.0 mg/mL molecular iodine until all remaining molecular iodine particles were dissolved, providing a clear solution of deep pink/violet colour.
Molecular iodine (I2) solutions in the semifluorinated alkane F6H8 at target concentrations of 0.1 mg/mL, 0.5 mg/mL and 1.0 mg/mL were prepared. Molecular iodine was weighed into clear glass vials, followed by addition of the calculated volume of semifluorinated alkane F6H8. The compositions were stirred for 2 hours at room temperature
Additional F6H8 was added to the target 1.0 mg/mL composition until all remaining molecular iodine particles were dissolved, providing a clear solution, with a concentration of about 0.88 mg/mL. The solution is a deep pink/violet in colour.
Solutions with higher I2 concentrations may be prepared with the addition of ethanol (non-absolute or alternatively absolute). F4H5/EtOH-Concentrations of about 20 mg/mL of I2 in F4H5 are achieved when ethanol is added to an amount of 38% (w/w), relative to the weight of the vehicle The resulting composition is a red-brown coloured solution.
F6H8/EtOH-Solutions with higher I2 concentrations may be prepared with the addition of ethanol (non-absolute or alternatively absolute). Concentrations of about 20 mg/mL of I2 in F6H8 are achieved when ethanol is added to an amount of 38% (w/w), relative to the weight of the vehicle.
Saturated iodine solutions as prepared in Example 1 above of I2 in F4H5 (0.94 mg/mL) and F6H8 (0.88 mg/mL) were stored standing under ambient atmosphere and temperature conditions under a capped clear glass vial for 52 weeks without protection from light.

Compound | corneal healing process after induction of corneal erosion (in words) (Rabbit corneas) | concentration at which all molecular iodine particles were dissolved (saturated solution) ([1]; in F4H5, room temperature) [µg/mL] | I2 concentration achieved ([1]; in F4H5 with ethanol 38% (w/w) of the vehicle) | concentration at which all molecular iodine particles were dissolved (saturated solution) ([1]; in F6H8, room temperature) | I2 concentration achieved ([1]; in F6H8 with ethanol 38% (w/w) of the vehicle)
benzalkonium chloride [0.01% BAC] | progressive increase of the induced epithelial lesions |  |  |  | 
II [molecular iodine, Molecular iodine] |  | 940 | about 20 mg/mL | about 0.88 mg/mL | about 20 mg/mL
